US20220144812A1, “QUINOLINE DERIVATIVES AND THEIR USE FOR THE TREATMENT OF CANCER” (Epizyme, Inc., priority 2019, published 2022)
pIC50: −log10 of the molar value.

Experiments:
KMBC2 bladder cell line = test: 7-day proliferation assay, KMBC2; format: cell-based; details: 168 h; KMBC2, 7 days, CellTiter-Glo
Description: (§1) This example describes methods and materials for 7-day proliferation assay.
(§2) A total of 22 bladder cell lines were used (see table below). Cell lines were cultured in recommended growth media according to supplier.
(§3) Cells were in culture media at a density optimized for a 7-day culture in a final volume of 150 μL per well in white opaque 96-well plates. Cells were allowed to adhere for several hours (4-6 h) then compounds were added with HPD300 Digital Dispenser and placed into the incubator at 37° C., 5% CO2 for 7 days. After 7 days incubation, 100 μL of CellTiter-Glo® Luminescent Cell Viability Assay (Promega-G7573) reagents were added per well. After 20 minutes incubation luminescence was measured in plate reader. IC50 were calculated from a non-linear logarithmic growth curve.
(§4) IC50 values (nanomolar (nM)) are summarized in the table below, which depicts the inhibitory effect of certain compounds in bladder cell lines.

CREBBP (1084-1701) = molecular target: T1, CREBBP (1084-1701) (Homo sapiens, UniProt Q92793); test: Biochemical assay for CREBBP (1084-1701), SAMDI; details: SAMDI, read-out: CREBBP Biochemistry IC50
T1 construct: measured in the following biochemical assay using CREBBP (1084-1701); purchased
T1 sequence (Q92793 1084-1701): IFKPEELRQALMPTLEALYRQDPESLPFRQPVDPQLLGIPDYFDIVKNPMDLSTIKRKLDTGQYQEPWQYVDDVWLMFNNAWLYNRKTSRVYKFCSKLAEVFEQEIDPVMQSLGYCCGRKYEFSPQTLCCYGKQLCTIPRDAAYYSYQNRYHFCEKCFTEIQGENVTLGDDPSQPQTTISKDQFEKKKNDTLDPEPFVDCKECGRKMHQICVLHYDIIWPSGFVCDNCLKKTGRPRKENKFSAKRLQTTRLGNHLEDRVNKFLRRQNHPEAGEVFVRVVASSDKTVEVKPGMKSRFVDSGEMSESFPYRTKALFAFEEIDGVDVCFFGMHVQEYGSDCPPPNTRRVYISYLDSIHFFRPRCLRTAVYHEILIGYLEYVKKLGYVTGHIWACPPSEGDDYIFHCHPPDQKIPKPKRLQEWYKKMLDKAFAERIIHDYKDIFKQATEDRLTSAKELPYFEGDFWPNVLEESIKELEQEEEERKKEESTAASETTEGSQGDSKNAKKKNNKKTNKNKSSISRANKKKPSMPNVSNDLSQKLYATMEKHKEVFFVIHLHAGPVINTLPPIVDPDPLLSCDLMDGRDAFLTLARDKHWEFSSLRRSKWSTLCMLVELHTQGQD
How it was run: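 CREBBP (1084-1701) preincubated with compound 30 min at RT, then substrate mix (biotin-H3 11-25 K14R/K23R peptide, acetyl-CoA) added for 30 min at RT. Reaction stopped with formic acid, neutralised with sodium bicarbonate. Peptide acetylation read by SAMDI mass spectrometry to derive IC50.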

[1] = system: HB-CLS-2 bladder cell line; test: 7-day proliferation assay, HB-CLS-2; format: cell-based; details: 168 h; HB-CLS-2, 7 days, CellTiter-Glo
Description: as §1, §2, §3, §4

UBLC1 bladder cell line = test: 7-day proliferation assay, UBLC1; format: cell-based; details: 168 h; UBLC1, 7 days, CellTiter-Glo
Description: as §1, §2, §3, §4

[2] = system: UM-UC-3 bladder cell line; test: 7-day proliferation assay, UM-UC-3; format: cell-based; details: Homo sapiens, UMUC3, 168 h; UM-UC-3, 7 days, CellTiter-Glo
Description: as §1, §2, §3, §4

639V bladder cell line = test: 7-day proliferation assay, 639V; format: cell-based; details: Homo sapiens, 168 h, 7 days, CellTiter-Glo
Description: as §1, §2, §3, §4

647V cells = test: High throughput proliferation (HTP) assay; format: cell-based; details: Homo sapiens, 647-V, high throughput proliferation; read-out: CREBBP HTP IC50
How it was run: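 Exponentially growing 647V cells in DMEM with 15% FBS were treated in triplicate with increasing compound concentrations at 37° C, 5% CO2. Viable cell number was read by CellTiter-Glo luminescence on day 7; IC50 in micromolar.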

CAL29 bladder cell line = test: 7-day proliferation assay, CAL29; format: cell-based; details: 168 h; CAL29, 7 days, CellTiter-Glo
Description: as §1, §2, §3, §4

EP300 (P300(1048-1664)) = molecular target: T2, EP300 (P300(1048-1664)) (Homo sapiens, UniProt Q09472); test: Biochemical assay for EP300, SAMDI; details: EP300, SAMDI; read-out: EP300 Biochemistry IC50
T2 construct: P300(1048-1664)
T2 sequence (Q09472 1048-1664): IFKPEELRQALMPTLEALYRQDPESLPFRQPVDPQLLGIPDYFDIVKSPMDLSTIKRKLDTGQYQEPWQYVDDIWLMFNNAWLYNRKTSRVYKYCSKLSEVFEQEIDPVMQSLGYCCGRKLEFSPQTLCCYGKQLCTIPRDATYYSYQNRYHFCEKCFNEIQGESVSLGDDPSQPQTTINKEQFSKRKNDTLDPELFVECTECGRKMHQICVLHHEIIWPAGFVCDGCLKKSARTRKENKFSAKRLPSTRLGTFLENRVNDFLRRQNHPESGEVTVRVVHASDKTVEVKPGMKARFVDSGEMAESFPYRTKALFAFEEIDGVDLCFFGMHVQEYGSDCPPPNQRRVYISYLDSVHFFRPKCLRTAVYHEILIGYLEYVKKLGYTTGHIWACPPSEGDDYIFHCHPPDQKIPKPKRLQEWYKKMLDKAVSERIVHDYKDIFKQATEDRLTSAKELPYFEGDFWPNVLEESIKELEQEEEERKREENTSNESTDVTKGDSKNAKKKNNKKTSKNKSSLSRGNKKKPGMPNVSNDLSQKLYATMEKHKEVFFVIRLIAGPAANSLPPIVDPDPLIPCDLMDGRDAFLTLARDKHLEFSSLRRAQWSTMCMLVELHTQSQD
Description: The following example describes materials and methods relating to a biochemical assay for EP300. IC50 values (micromolar (μM)) are summarized in Table 1, Table 2, and Table 3 under the column labeled: “EP300 Biochemistry IC50 (micromolar).”

RT112 bladder cell line = test: 7-day proliferation assay, RT112; format: cell-based; details: Homo sapiens, RT-112, 168 h; RT112, 7 days, CellTiter-Glo
Description: as §1, §2, §3, §4

| pIC50 (CREBBP (1084-1701)) | pIC50 (EP300 (P300(1048-1664))) | Compound | pIC50 (KMBC2 bladder cell line) | pIC50 [1] | pIC50 (UBLC1 bladder cell line) | pIC50 [2] | pIC50 (639V bladder cell line) | pIC50 (647V cells) | pIC50 (CAL29 bladder cell line) | pIC50 (RT112 bladder cell line) |
| --- | --- | --- | --- | --- | --- | --- | --- | --- | --- | --- |
| 7.68 | 8.36 | CCn1ncc(CN(C)C(=O)c2cc(-c3ccc(NCCNC)c(C)n3)nc3ccc(Cl)cc23)c1C [Compound 3, 6-chloro-N-[(1-ethyl-5-methyl-1H-pyrazol-4-yl)methyl]-N-methyl-2-(6-methyl-5-{[2-(methylamino)ethyl]amino}pyridin-2-yl)quinoline-4-carboxamide] | 5.12 | 6.66 | 6.85 | 6.10 | 7.40 | 7.57 | 5.70 | 6.95 |
| 7.37 | 7.73 | CCc1ncc(CN(C)C(=O)c2cc(-c3ccc(NCCN(C)C)c(C)n3)nc3ccc(Cl)cc23)n1C [Compound 577] | 6.05 | 6.62 | 6.37 | 5.96 | 7.00 | 7.51 | 5.92 | 7.11 |
| 7.48 | 7.66 | CCc1noc(CN(C)C(=O)c2cc(-c3ccc(NCCNC)c(C)n3)nc3ccc(Cl)cc23)c1C [Compound 537] | 5.80 | 6.36 | 6.31 | 5.86 | 7.00 | 7.30 | 6.15 | 6.43 |
| 7.77 | 8.19 | CCn1ncc(CN(C)C(=O)c2cc(-c3ccc(NC4CN(C)C4)c(C)n3)nc3ccc(Cl)cc23)c1C [Compound 480] | 5.74 | 6.46 | 6.63 | 6.23 | 7.24 | 7.71 | 6.28 | 6.70 |
